# Assay results reported in patent US7396842B2, “Five-membered cyclic compounds” (Dianippon Sumitomo Pharma Co., Ltd., priority 2002, dated 2008).
# Read-outs that look alike come from different tables or passages of the source.
# Columns and labels:
# [1] = molecular target: T1, SMBS on rat lung membranes (Rattus norvegicus, UniProt A0A8I6A822); experiment: Receptor binding of the compound in rat lung membranes ([125I]-iodo-cyanopindolol ligand binding assay; Experiments 1 and 4); settings: rat lung membranes, read-out: Binding Activity (30 μM)
# T1 construct: from tissue; host or cells: rat lung membranes (SD male rats)
# T1 sequence (A0A8I6A822 27-587): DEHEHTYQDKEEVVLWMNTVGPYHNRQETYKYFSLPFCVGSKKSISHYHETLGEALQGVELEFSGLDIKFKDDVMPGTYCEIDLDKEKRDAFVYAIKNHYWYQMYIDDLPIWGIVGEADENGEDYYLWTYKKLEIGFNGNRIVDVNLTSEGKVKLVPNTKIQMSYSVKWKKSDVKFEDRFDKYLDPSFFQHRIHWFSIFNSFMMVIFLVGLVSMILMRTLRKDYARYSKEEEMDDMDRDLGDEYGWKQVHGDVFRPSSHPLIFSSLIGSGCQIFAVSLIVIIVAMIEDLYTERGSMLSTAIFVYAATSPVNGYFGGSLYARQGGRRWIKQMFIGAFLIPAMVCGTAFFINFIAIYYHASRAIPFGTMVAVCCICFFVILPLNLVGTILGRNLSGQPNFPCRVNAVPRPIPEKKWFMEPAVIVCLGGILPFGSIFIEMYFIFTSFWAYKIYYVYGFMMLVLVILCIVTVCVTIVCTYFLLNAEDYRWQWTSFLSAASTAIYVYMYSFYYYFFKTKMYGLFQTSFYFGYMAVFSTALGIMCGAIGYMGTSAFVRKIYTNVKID
# Hartley male guinea pigs = experiment: Late asthmatic model in guinea pigs (ovalbumin sensitization and challenge, respiratory function sGaw); format: in vivo, guinea pig
# Description: Experiment 2 Evaluation of the Compound in Late Asthmatic Model in Guinea Pigs
# The evaluation test was carried out using the compound obtained in Example 1.
# Hartley male guinea pigs (purchased from Japan SLC) were prefed for about 1 week after purchasing them, and exposed to a 2% (w/v) solution of ovalbumin (OA) in saline solution in a plastic box (4 animals/box) for 5 minutes and made them inhale it by using an ultrasonic nebulizer (OMRON NE-U12, conditions: maximum amount of atomization and maximum airflow) for sensitization (Day 0). The animals were subjected to the same procedures on the 7th day. On the 14th and 15th days, each one animal was made to inhale a 2% OA for 5 minutes for antigen-challenge. One hour prior to the antigen-challenge, pyrilamine maleate (antihistamic agent; dissolved in saline solution, 10 mg/2 ml/kg) was intraperitoneally administered to each animal. A test compound was suspended in a 0.5% methyl cellulose (MC), and administered intraperitoneally twice to each animal at 2 hours prior to, and 6 hours after the antigen-challenge at a dose of 100 mg/5 ml/kg. To the control group, a 0.5% MC was administered in the same manner instead of a test compound.
# The measurement and analysis of the respiratory function were carried out by a modified method of the method of Hutson et al., (cf., Penny A. Hutson et al., Am Rev Respir Dis 1988 137, 548-557). Before the antigen-challenge (before the administration of the drug) and 5 minutes, and 3, 17 and 20 hours after the antigen-challenge, the respiratory function of each animal was measured, and the wave pattern was recorded using Maclab Chart v 3.4 (AD instruments), and the analysis of the respiratory function was carried out later by using thereof. The specific airway conductance (sGaw) was calculated, and the degree of the improvement of the respiratory function was evaluated by using it as an index.
# [2] = system: leukocyte infiltration into the airway; experiment: Leukocyte infiltration into the airway in the guinea pig models (BALF cell counts); format: in vivo
# Description: Evaluation of the Compound in the Leukocyte Infiltration into the Airway in the Guinea Pig Models:
# In the same manner to in Experiment 2, the sensitization, the antigen challenge, and the administration of pyrilamine maleate and a medicament were carried out.
# The recovery of bronchoalveolar lavage fluid (BALF) was carried out at 24 hours after the antigen challenge. Namely, the animals were anesthetized by intraperitoneal administration of pentbarbital (50 mg/ml) at a dose of 0.5 ml per animal, and the animals were subjected to an abdominal operation after sufficiently anesthetized. The perineal abdominal aorta was cut and the animals were killed by venesection. The diaphragm was incised and the neck was also incised to expose the trachea. After the trachea was cut, a cannula was inserted thereto, and an ice-cooled saline solution (5 ml) was injected by using a 5 ml syringe. Then, the injection and the suction were repeated three times by using the same solution for recovery. The fluid was collected and filtered through a stainless mesh, and collected in a tube on the ice. These procedures were repeated twice, and the recovery fluid was collected into the same tube (cases wherein the fluid volume was not more than 7 ml were not employed as data).
# After the recovery, the fluid volume to be recovered was measured with the eye, and the fluid was centrifuged at 1500 rpm at 4° C. for 3 minutes, and the supernant was discarded. The residue was subjected to hemolysis under hypooncotic conditions. The mixture was centrifuged at 1500 rpm at 4° C. for 3 minutes, and the supernatant was discarded. The cells thus collected were suspended in a phosphoric buffered saline solution (PBS (−))(1 ml) containing a 0.5% BSA. The total number of cells were counted in this suspension by an automated leukocyte counter. After the measurement, a slide preparation was prepared by using Cytospin, which was further stained with a Diff Quick Stainning Kit.
# [3] = BALF recovered at 24 hours after the antigen challenge, guinea pig
# [4] = versus control group, BALF 24 hours after antigen challenge, 100 mg/5 ml/kg i.p. twice
melting point [°C],"inhibition at 30 µM ([1]; Table 37, compound concentration 30 μM, [125I]-iodo-cyanopindolol, Experiment 1) [%]","inhibition at 30 µM ([1]; Table 44, concentration tested 30 μM, Experiment 4) [%]",SMILES,"inhibitory rate of LAR (from rate of change of sGaw) (Hartley male guinea pigs; 20-hr value, versus control group, 100 mg/5 ml/kg i.p. twice)","Rate of change of sGaw, 5 minutes (Hartley male guinea pigs; 5 minutes after antigen challenge (IAR), 100 mg/5 ml/kg i.p. 2 h prior to and 6 h after challenge) [%]","Rate of change of sGaw, 20 hours (Hartley male guinea pigs; 20 hours after antigen challenge (LAR), 100 mg/5 ml/kg i.p. 2 h prior to and 6 h after challenge) [%]","inhibition of IAR induced immediately after the antigen challenge (Hartley male guinea pigs; result in words, 100 mg/5 ml/kg i.p. twice)","Number of eosinophils (×10^5) [2, 3]","Number of lymphocytes (×10^5) [2, 3]","Total number of cells (×10^5) [2, 3]","reduction of number of eosinophils in BALF [2, 4] [%]","reduction of number of lymphocytes in BALF [2, 4] [%]","reduction of total number of cells in BALF [2, 4] [%]"
241 to 242,–,–,Cl.NCCCn1c(-c2ccc(Br)cc2)csc1=Nc1ccccc1,–,–,–,–,–,–,–,–,–,–
–,61.3,–,"CN(C)CCCn1c(-c2ccc(Br)cc2)csc1=Nc1ccccc1 [Example 1, N-{4-(4-bromophenyl)-3-[3-(dimethylamino)propyl]thiazol-2(3H)-ylidene}aniline]",about 60%,−33.8 ± 6.8,−14.2±15.0,tendency of inhibiting the IAR,13.8 ± 5.1 ×10^5,2.0 ± 0.6 ×10^5,62.1 ± 8.6 ×10^5,79,70,82
131 to 132,–,97,"COc1ccc(C(=O)/N=c2\scc(-c3ccc(OC(F)(F)F)cc3)n2CCCNC(C)=O)c(OC)c1 [Example 446, N-[3-[3-(Acetoamino)propyl]-4-[4-(trifluoromethoxy)phenyl]-1,3-thiazol-2(3H)-ylidene]-2,4-dimethoxybenzamide]",–,–,–,–,–,–,–,–,–,–
